Assay results reported in paper PMC13242511, “Disrupting Notch signalling by a small molecule inhibiting dihydroorotate dehydrogenase activity” (Scientific Reports, 2026).
Several values for one entry are separate records, joined by “and”; a condition that tells them apart may be missing. Equal values may be shown once. Entries after “also recorded” stand apart in the source; their conditions may differ. Read-outs that look alike come from different tables or passages of the source.

Experiments:
Notch signalling = assay: Notch reporter assay (12xCSL firefly luciferase / renilla luciferase, HEK293T Notch1ΔE reporter cell line clone #A1-11); type: cell-based; set-up: AUC Notch: scale not given here; conditions: for Bottom (Emax): Emax indicated independent from assay constraints, in % (unit assumed); for activity: 1,25µM; for AUC Notch: area under the 14-point dose-response curve; for reporter signal in % of DMSO: inhibitor controls, Supplemental Fig. 2A; for Notch assay: overview in comparison to compound C, Supplemental Fig. 9
In short: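 Compounds at two-fold concentration in 10 µl medium were brought to one-fold by adding 10 µl holding 4000 Notch reporter cells (clone #A1-11) per well of a 384-well plate. After 24 h, Promega dual-GLO firefly and renilla luciferase were read on a SpectraMaxi3. Dose-response curves were fitted with a log(inhibitor) vs. response variable-slope model.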

γ-secretase complex = γ-secretase complex (Homo sapiens, UniProt P49768); assay: APP-C99 counter assay (GSI reporter assay); type: cell-based; set-up: AUC APP: scale not given here; conditions: for remaining activity at 10 µM / remaining activity at 25 µM / remaining activity at […]: 24 h, APP-C99 counter assay, read-out: 3p-DR in % of DMSO counter; for remaining activity at […]: 1,25µM; for AUC APP: area under the 14-point dose-response curve, replicates averaged; for APP assay: overview in comparison to compound C, Supplemental Fig. 9
In short: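 γ-secretase activity reported via APP cleavage driving firefly luciferase, normalized to renilla. After 24 h transfection then 24 h compound exposure, signals were read (0.1 s integration). Triplicate dose–responses fitted by variable-slope four-parameter model for IC50; area under curve also derived.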

[1] = Homo sapiens, HEK-293T, 14p Notch assay DR, bottom constrained to Emax of positive control DAPT, read-out: approximated IC50
[2] = Homo sapiens, HEK-293T, 14p Notch assay DR, log10 value, bottom constrained to Emax of positive control DAPT, read-out: approximated LogIC50 (converted)
[3] = Homo sapiens, HEK-293T, 10 µM, primary screen, 24 h, unit from Fig. 2 legend, read-out: Primary screen at 10 µM (Notch reporter signal)
[4] = Homo sapiens, HEK-293T, 10 µM, three-dose confirmation screen, unit from Fig. 2 legend, read-out: Hit confirmation at 10 µM (Notch reporter signal)
[5] = Homo sapiens, HEK-293T, 10µM, 3-point DR confirmation screen, Notch reporter assay, read-out: inhibitor ratio in % of DMSO in 3 point DR
[6] = Homo sapiens, HEK-293T, 10 µM, sheet conf vs counter 10 µM, same values as 3-point DR confirmation screen, read-out: Confirmation screen
[7] = Homo sapiens, HEK-293T, 25µM, 3-point DR confirmation screen, Notch reporter assay, read-out: inhibitor ratio in % of DMSO in 3 point DR
[8] = Homo sapiens, HEK-293T, 25 µM, Notch reporter 3-point dose-confirmation assay, sheet "conf vs counter 25 µM", read-out: Confirmation screen
[9] = Homo sapiens, HEK-293T, 3-point DR confirmation screen, Notch reporter assay, read-out: inhibitor ratio in % of DMSO in 3 point DR
[10] = 14p APP assay DR, bottom constrained to Emax of positive control LY-411575
[11] = 9p dose response, AUCs averaged when replicates available
[12] = 14p dose response, AUCs averaged when replicates available
[13] = Homo sapiens, HEK-293T, 14-point dose-response, Fig. 4, read-out: approximated IC50, Notch reporter assay

SMILES | Bottom (Emax) (Notch signalling; 14p Notch assay DR) | IC50 (Notch signalling; [1]) | IC50 (Notch signalling; [2]) | AUC Notch (Notch signalling; replicates averaged) | Hill-slope (γ-secretase complex; [10]) | AUC APP (γ-secretase complex) | further results
CCOc1ccccc1-c1ccccc1NC(=O)c1ccc2c(c1)ncn2C1CC1 [CBK285808] | 26.5 | 5.1 µM | 5.01 µM | 300.0 | 0.0761 | 538.6 | activity at 10 µM (Notch signalling; [3]): 35.1%; activity at 10 µM (Notch signalling; [4]): 64.7%; activity at 10 µM (Notch signalling; [5]): 64.7%; activity at 10 µM (Notch signalling; [6]): 64.7%; activity at 25 µM (Notch signalling; [7]): 45.7%; activity at 25 µM (Notch signalling; [8]): 45.7%; activity (Notch signalling; [9]): 102%; remaining activity at 10 µM (γ-secretase complex): 165%; remaining activity at 25 µM (γ-secretase complex): 197%; remaining activity at […] (γ-secretase complex): 113%
CC(=O)Oc1cccc(N2C(=O)c3ccc(Oc4cccc(N)c4)cc3C2=O)c1 [CBK261099] | 18.6 | 1.8 µM | 1.58 µM | 282.0 | -2.8 | 428.7 | activity at 10 µM (Notch signalling; [3]): 31.5%; activity at 10 µM (Notch signalling; [4]): 28.1%; activity at 10 µM (Notch signalling; [5]): 28.1%; activity at 10 µM (Notch signalling; [6]): 28.1%; activity at 25 µM (Notch signalling; [7]): 20.3%; activity at 25 µM (Notch signalling; [8]): 20.3%; activity (Notch signalling; [9]): 87.9%; remaining activity at 10 µM (γ-secretase complex): 80.5%; remaining activity at 25 µM (γ-secretase complex): 59.7%; remaining activity at […] (γ-secretase complex): 124%
C[C@H](NC(=O)[C@@H](O)c1cc(F)cc(F)c1)C(=O)N[C@@H]1C(=O)N(C)c2ccccc2-c2ccccc21 [LY-411575, reference compound] | 46.0 and 46.9 |  |  | 373.0 |  | 428.9 | reporter signal in % of DMSO (Notch signalling; 10 µM): 46%; AUC 9p Notch reporter assay (Notch signalling; [11]): 1.91E+02; IC50 (Notch signalling; 14-point, unit inferred, replicates averaged, read-out: approxiated IC50s 14p Notch reporter assay): 0.00088 µM; Hill-slope (Notch signalling; 14p Notch assay DR, Notch inhibitor controls, no bottom constraint named): -1.3; approximated LogIC50 [M] (Notch signalling; 14p Notch assay DR, log10 value, Notch inhibitor controls, no bottom constraint named): -9.0 M; Hill-Slope 14p Notch reporter assay (Notch signalling; 14p dose response): -1.3; IC50 (Notch signalling; 14p dose response, single replicates, read-out: approximated IC50s 14p Notch reporter assay): 0.00086 µM and 0.0009 µM; AUC 14p Notch reporter assay (Notch signalling; [12]): 3.73E+02; 14p Notch reporter assay averaged IC50s (log) (Notch signalling; 14p dose response, log10 of averaged IC50): -9.1; Notch assay (Notch signalling): highest potency; also recorded: highest activity; Hill-Slope 9p APP counter assay averaged (γ-secretase complex; 9p dose response): -1.0; AUC 9p APP-counter assay (γ-secretase complex; [11]): 1.95E+02; Bottom (Emax) (γ-secretase complex; 14p APP assay DR, Emax indicated independent from assay constraints): 44.6 and 46.0; AUC. 14p APP-counter assay (γ-secretase complex; [12]): 4.29E+02; APP assay (γ-secretase complex): highest potency
CC1CCc2c(sc3ncnc(NCCCN4CCCCCC4=O)c23)C1 (centres unmarked) [CBK305947] | 34.4 | 7.1 µM | 7.94 µM | 316.0 | 0.121 | 578.1 | activity at 10 µM (Notch signalling; [3]): 41.4%; activity at 10 µM (Notch signalling; [4]): 66.5%; activity at 10 µM (Notch signalling; [5]): 66.5%; activity at 10 µM (Notch signalling; [6]): 66.5%; activity at 25 µM (Notch signalling; [7]): 46.7%; activity at 25 µM (Notch signalling; [8]): 46.7%; activity (Notch signalling; [9]): 107%; remaining activity at 10 µM (γ-secretase complex): 118%; remaining activity at 25 µM (γ-secretase complex): 144%; remaining activity at […] (γ-secretase complex): 96.6%
Cc1ccccc1Nc1nc(N)nc(CN2CCCC(C(F)(F)F)C2)n1 (centres unmarked) [CBK305073] | 32.5 | 5 µM | 5.01 µM | 305.0 | 0.121 | 566.4 | activity at 10 µM (Notch signalling; [3]): 39.6%; activity at 10 µM (Notch signalling; [4]): 65.1%; activity at 10 µM (Notch signalling; [5]): 65.1%; activity at 10 µM (Notch signalling; [6]): 65.1%; activity at 25 µM (Notch signalling; [7]): 48.4%; activity at 25 µM (Notch signalling; [8]): 48.4%; activity (Notch signalling; [9]): 102%; remaining activity at 10 µM (γ-secretase complex): 129%; remaining activity at 25 µM (γ-secretase complex): 156%; remaining activity at […] (γ-secretase complex): 92.5%
CC(=O)Nc1cccc(-c2cn3ccnc3c(Nc3cccc(OC(F)(F)C(F)F)c3)n2)c1 [CBK037499] | 77.1 | > 40 µM | > 40 µM | 348.0 | 0.0127 | 508.5 | 
COc1cccc(-c2nnc(NC(=O)c3ccc4c(c3)OCCO4)o2)c1 [CBK287591] | 88.3 |  |  | 363.0 | -1.2 | 490.0 | 
c1ccc(-c2ccccc2CN2CCC3(CC2)OCCc2c3[nH]c3ccccc23)cc1 [CBK040201] | 50.0 | 2 µM | 2 µM | 592.0 | 0.0232 | 739.3 | 
c1ccc(Nc2nc(-c3ccc(Oc4ccccc4)cc3)cn3ccnc23)cc1 [CBK066406] | 88.8 |  |  | 367.0 | 0.00761 | 491.7 | 
NC(=O)c1c(NC(=O)NC2CCCCC2)sc2c1CCCC2 [CBK431895] | 87.8 |  |  | 341.0 | -0.00462 | 411.0 | IC50 (Notch signalling; [13]): 33.5 µM
Cc1[nH]c2cccc(C(=O)N3CCCCC3CCNC(=O)c3ccccc3)c2c1C (centres unmarked) [CBK285976] |  | 3.5 µM | 3.16 µM | 532.0 | -2.25e-11 | 774.2 | IC50 (Notch signalling; Homo sapiens, HEK-293T, 14p Notch assay DR, averaged when replicate measurements were available, read-out: averaged IC50s): 3.2 µM; IC50 (Notch signalling; Homo sapiens, HEK-293T, 14p Notch assay DR, bottom constrained to Emax of positive control RO4929097, read-out: approximated IC50): 3 µM; IC50 (Notch signalling; Homo sapiens, HEK-293T, 14p Notch assay DR, log10 value, bottom constrained to Emax of positive control RO4929097, read-out: approximated LogIC50 (converted)): 3.16 µM; activity at 10 µM (Notch signalling; [3]): 37.7%; activity at 10 µM (Notch signalling; [4]): 54.9%; activity at 10 µM (Notch signalling; [5]): 54.9%; activity at 10 µM (Notch signalling; [6]): 54.9%; activity at 25 µM (Notch signalling; [7]): 38.3%; activity at 25 µM (Notch signalling; [8]): 38.3%; activity (Notch signalling; [9]): 100%; Hill-slope (γ-secretase complex; 14p APP assay DR, bottom constrained to Emax of positive control CB-103): 0.344; curve fit information (γ-secretase complex; [10]): IC50 indeterminate; remaining activity at 10 µM (γ-secretase complex): 145%; remaining activity at 25 µM (γ-secretase complex): 135%; remaining activity at […] (γ-secretase complex): 126%
CC1=C(C(=O)OC2CCCCC2)C(c2ccc([N+](=O)[O-])cc2)C2=C(CC(C)(C)CC2=O)N1 (centres unmarked) [FLI-06, reference compound] |  |  |  |  |  |  | reporter signal in % of DMSO (Notch signalling; 10 µM): 62%; Notch assay (Notch signalling): active, potency n.d.; APP assay (γ-secretase complex): active, potency n.d.
Cc1ccccc1CN1CCC2(CC1)OCCc1c2n(C)c2ccccc12 [CBK040366] | 104.0 |  |  | 632.0 | 4.29e-13 | 658.0 | approximated IC50, Notch reporter assay (Notch signalling; 14-point dose-response, Fig. 4): Indeterminate; curve fit information (γ-secretase complex; [10]): IC50 indeterminate
O=C(Nc1nnc(-c2ccc3c(c2)OCCO3)o1)c1cccc(F)c1 [CBK287402] | 87.8 |  |  | 353.0 |  | 499.9 | curve fit information (γ-secretase complex; [10]): IC50 indeterminate
CC(=O)Nc1cccc(-c2cn3ccnc3c(Nc3ccccc3)n2)c1 [CBK066160] | 87.0 |  |  | 362.0 | -4.6e-12 | 549.2 | curve fit information (γ-secretase complex; [10]): IC50 indeterminate
COc1cc(Nc2cncc(-c3cccc(N)c3)n2)cc(OC)c1OC [CBK065120] | 47.4 | 23 µM | 25.1 µM | 329.0 | 0.0798 | 545.0 | 
Oc1cc(-c2ccccc2)nn1-c1nc2ccccc2s1 [CBK016481] | 98.5 |  |  | 626.0 | 0.00215 | 668.5 | approximated IC50, Notch reporter assay (Notch signalling; 14-point dose-response, Fig. 4): Indeterminate
CC(C)C(=O)Nc1sc2c(c1C(=O)NCc1cccnc1)CCC2 [CBK306144] | ~ 92,84 |  |  | 357.0 | -0.0106 | 480.2 | approximated IC50, Notch reporter assay (Notch signalling; 14-point dose-response, Fig. 4): Indeterminate
CCn1ncc(CN(C)C(=O)c2cc(-c3cccnc3)nc3ccc(Cl)cc23)c1C [CBK276708] | 29.2 | 10 µM | 10 µM | 559.0 |  | 735.5 | IC50 (Notch signalling; [13]): > 5 µM; curve fit information (γ-secretase complex; [10]): IC50 indeterminate
Cc1ccccc1C(=O)NC(=S)Nc1sc2c(c1C(N)=O)CCC2 [CBK262107] | 90.8 |  |  | 379.0 | 0.0876 | 533.6 | IC50 (Notch signalling; [13]): > 40 µM
